In patent US6310176A, “Antimicrobially active polypeptides” (SBL Vaccin AB, priority 1996, dated 2001):
Like-named read-outs stand apart in the source and are kept apart here. Where no end group is shown, it is not given here.

Assays:
Human red cells [1] = assay: Red blood cell lysis; type: cell-based
[2] = test system: Staphylococcus aureus Cowan1; conditions: S. aureus Cowan1; cecropin data from Hultmark et al. (1983); cited from earlier work
Human red cells [3] = conditions: cecropin data from Hultmark et al. (1983); cited from earlier work
Y. pseudotubercolosis = conditions: cecropin data from Hultmark et al. (1983); cited from earlier work
Bacillus megaterium BM11 [4] = conditions: B. megaterium BmII; cecropin data from Hultmark et al. (1983); cited from earlier work
Escherichia coli D21 [5] = conditions: E. coli D21; cecropin data from Hultmark et al. (1983); cited from earlier work
Escherichia coli D21 [6] = assay: Antimicrobial inhibition zone assay, E. coli D21; type: cell-based; conditions: Table 2
Experimental: Antimicrobial assay. The antibacterial activity was tested against Bacillus megaterium BM11, Staphylococcus aureus Cowahl, Streptococcus pyogenes b hemolytic group A, Pseudomonas aeruginosa ATCC 15692, Escherichia coli D21, E. coli D21e7, E. coli D21f1, E. coli D21f2 and E. coli D22, using an inhibition zone assay on LB broth/1% agarose plates seeded with 2×10^5 viable bacteria (Hultmark, D., Engstrom, A., Andersson, K., Steiner, H., Bennich, H. & Boman, H. G. (1983) Insect immunity. Attacin, a family of antibacterial proteins from Hyulophora cecropin, EMBO J. 2, 571-576). Fresh cultures of Candida albicans ATCC 10261 were inoculated in WB broth, pH 6.5, and grown at 37° C. to approximately 0.6 OD600. Before plating, cultures were diluted 300 fold and then incubated overnight at 37° C. in the presence of the test peptide, the concentration of which was established by amino acid analysis. Inhibition zones were measured and the lethal concentration (LC, the lowest concentration that inhibits the growth) was calculated from the diameter of the zones obtained in serial dilutions of the test substance by using the formula given in Hultmark, D., Engstrom, A., Andersson, K., Steiner, H., Bennich, H. & Boman, H. G. (1983) Insect immunity. […] Values are expressed as the mean of at least 5 experiments with a divergence of not more than one dilution step. […]

[7] = test system: Staphylococcus aureus Cowan1; assay: Antimicrobial inhibition zone assay, S. aureus; type: cell-based; conditions: inhibition zones on agarose plates
Experimental: (§1) Antimicrobial assay. The antibacterial activity was tested against Bacillus megaterium BM11, Staphylococcus aureus Cowahl, Streptococcus pyogenes b hemolytic group A, Pseudomonas aeruginosa ATCC 15692, Escherichia coli D21, E. coli D21e7, E. coli D21f1, E. coli D21f2 and E. coli D22, using an inhibition zone assay on LB broth/1% agarose plates seeded with 2×10^5 viable bacteria (Hultmark, D., Engstrom, A., Andersson, K., Steiner, H., Bennich, H. & Boman, H. G. (1983) Insect immunity. Attacin, a family of antibacterial proteins from Hyulophora cecropin, EMBO J. 2, 571-576). Fresh cultures of Candida albicans ATCC 10261 were inoculated in WB broth, pH 6.5, and grown at 37° C. to approximately 0.6 OD600. Before plating, cultures were diluted 300 fold and then incubated overnight at 37° C. in the presence of the test peptide, the concentration of which was established by amino acid analysis. Inhibition zones were measured and the lethal concentration (LC, the lowest concentration that inhibits the growth) was calculated from the diameter of the zones obtained in serial dilutions of the test substance by using the formula given in Hultmark, D., Engstrom, A., Andersson, K., Steiner, H., Bennich, H. & Boman, H. G. (1983) Insect immunity. […] Values are expressed as the mean of at least 5 experiments with a divergence of not more than one dilution step.

Bacillus megaterium BM11 [8] = assay: Antimicrobial inhibition zone assay, B. megaterium; type: cell-based; conditions: B. megaterium BmII; inhibition zones on agarose plates
Experimental: as §1

Molecule: FIGSALKVLAGVLPSVISWVKQ-NH2 [MLP]
- Lethal concentration (lytic activity) (Human red cells [1]): 0.5 µM

Molecule: Cecropin A: cecropin from insect hemolymph (KWKLFKKIEKVGQNIRDGIIKAGPAVAVVGQATQIAK; ends and bridges not checked; UniProt P01507 27-63, looked up)
- Lethal concentration [2]: > 200 µM
- Lethal concentration (lytic activity) (Human red cells [3]): > 400 µM
- Lethal concentration (Y. pseudotubercolosis): 0.5 µM
- Lethal concentration (Bacillus megaterium BM11 [4]): 0.5 µM
- Lethal concentration (Escherichia coli D21 [5]): 0.3 µM

Molecule: CC[C@H](C)[C@H](NC(=O)CN)C(=O)NCC(=O)N[C@@H](C)C(=O)N[C@H](C(=O)N[C@@H](CC(C)C)C(=O)N[C@@H](CCCCN)C(=O)N[C@H](C(=O)N[C@@H](CC(C)C)C(=O)N[C@H](C(=O)N[C@H](C(=O)NCC(=O)N[C@@H](CC(C)C)C(=O)N1CCC[C@H]1C(=O)N[C@@H](C)C(=O)N[C@@H](CC(C)C)C(=O)N[C@H](C(=O)N[C@@H](CO)C(=O)N[C@@H](Cc1c[nH]c2ccccc12)C(=O)N[C@H](C(=O)N[C@@H](CCCCN)C(=O)N[C@@H](CCCNC(=N)N)C(=O)N[C@@H](CCCCN)C(=O)N[C@@H](CCCNC(=N)N)C(=O)N[C@@H](CCC(N)=O)C(=O)N[C@@H](CCC(N)=O)C(N)=O)[C@@H](C)CC)[C@@H](C)CC)[C@@H](C)O)[C@@H](C)O)C(C)C)C(C)C [Melittin]
- Lethal concentration (lytic activity) (Human red cells [1]): 0.9 µM
- Lethal concentration (Escherichia coli D21 [6]): 0.8 µM
- Lethal concentration [7]: 0.2 µM
- Lethal concentration (Bacillus megaterium BM11 [8]): 0.6 µM

Molecule: FLPLIGRVLSGIL-NH2 [Temporin A]
- Lethal concentration (lytic activity) (Human red cells [1]): > 120 µM

Molecule: LLPIVGNLLKSLL-NH2 [Temporin B]
- Lethal concentration (lytic activity) (Human red cells [1]): > 120 µM
